ChEMBL document CHEMBL1135699, “Designing non-peptide peptidomimetics in the 21st century: inhibitors targeting conformational ensembles” (J Med Chem, 2002)
Non-standard residues stand in square brackets, D forms with d. Residues, ends and D or L forms follow the SMILES beside them. *: point of attachment. Sta = CC(C)C[C@H](N)[C@@H](O)CC(=O)O; NHIsopentyl = CC(C)CCN*; X1 = CC(C)CCOC(=O)*

Assays:
Pepsin A [1] = biological target: Pepsin A (Homo sapiens, UniProt P0DJD9); test: Inhibition of pepsin
Pepsin A [2] = biological target: Pepsin A (Sus scrofa, UniProt P00791); test: Inhibitory concentration against porcine pepsin
Rhizopuspepsin = biological target: T1, Rhizopuspepsin (Rhizopus microsporus var. chinensis, UniProt P06026); test: Inhibitory concentration against Rhizopus chinensis pepsin; assay type: functional
T1 sequence (P06026 whole entry): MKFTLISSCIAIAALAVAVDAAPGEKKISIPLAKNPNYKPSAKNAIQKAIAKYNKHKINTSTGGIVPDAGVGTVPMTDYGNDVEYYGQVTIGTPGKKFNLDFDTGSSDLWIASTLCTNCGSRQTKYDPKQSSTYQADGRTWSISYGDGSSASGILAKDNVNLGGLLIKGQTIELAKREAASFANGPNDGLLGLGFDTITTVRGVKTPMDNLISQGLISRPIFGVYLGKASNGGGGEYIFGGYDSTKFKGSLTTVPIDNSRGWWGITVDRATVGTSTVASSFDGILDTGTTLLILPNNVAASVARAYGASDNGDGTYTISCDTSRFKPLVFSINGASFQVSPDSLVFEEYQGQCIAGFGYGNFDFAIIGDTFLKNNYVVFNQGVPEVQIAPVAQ

Pepsin A (Homo sapiens, UniProt P0DJD9), sequence (P0DJD9 whole entry): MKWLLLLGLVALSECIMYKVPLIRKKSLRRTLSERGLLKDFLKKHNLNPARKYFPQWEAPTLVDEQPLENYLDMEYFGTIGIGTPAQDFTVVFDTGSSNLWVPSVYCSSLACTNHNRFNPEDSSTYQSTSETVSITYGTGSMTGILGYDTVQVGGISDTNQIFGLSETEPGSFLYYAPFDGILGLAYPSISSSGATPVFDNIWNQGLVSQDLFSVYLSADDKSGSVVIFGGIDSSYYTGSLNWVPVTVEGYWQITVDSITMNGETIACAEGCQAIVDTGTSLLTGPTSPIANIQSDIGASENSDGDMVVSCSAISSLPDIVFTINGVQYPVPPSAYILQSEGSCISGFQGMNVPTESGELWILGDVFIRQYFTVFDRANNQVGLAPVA
Pepsin A (Sus scrofa, UniProt P00791), sequence (P00791 whole entry): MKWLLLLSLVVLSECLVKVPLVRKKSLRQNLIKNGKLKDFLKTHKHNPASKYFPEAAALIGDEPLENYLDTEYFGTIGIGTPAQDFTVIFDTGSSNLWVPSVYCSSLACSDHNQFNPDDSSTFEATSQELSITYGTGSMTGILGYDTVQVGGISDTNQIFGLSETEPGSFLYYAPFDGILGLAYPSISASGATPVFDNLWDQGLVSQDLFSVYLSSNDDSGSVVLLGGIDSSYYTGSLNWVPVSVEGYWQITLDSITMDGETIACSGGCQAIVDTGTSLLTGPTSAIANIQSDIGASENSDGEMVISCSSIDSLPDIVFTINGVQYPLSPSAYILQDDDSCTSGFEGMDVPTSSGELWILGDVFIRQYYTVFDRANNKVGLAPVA

SMILES	Ki (Pepsin A [1]) [nM]	also measured
CC(C)CCNC(=O)[C@H](C)NC(=O)C[C@@](C)(O)[C@H](CC(C)C)NC(=O)[C@@H](NC(=O)[C@@H](NC(=O)OCCC(C)C)C(C)C)C(C)C	1.5	
Brc1ccc(CO[C@H]2CNCC[C@@H]2c2ccccc2)cc1		IC50 (Pepsin A [2]): 200 nM
CC(C)CCNC(=O)[C@H](C)NC(=O)C[C@](C)(O)[C@H](CC(C)C)NC(=O)[C@@H](NC(=O)[C@@H](NC(=O)OCCC(C)C)C(C)C)C(C)C	1200	
CC(C)CCNC(=O)[C@H](C)NC(=O)C[C@H](O)[C@H](CC(C)C)NC(=O)[C@@H](NC(=O)[C@@H](NC(=O)OCCC(C)C)C(C)C)C(C)C (X1-VV[Sta]A-NHIsopentyl)	0.1	
O=C(COc1ccc([C@H]2CCNC[C@@H]2OCc2ccc(Br)cc2)cc1)c1ccc2ccccc2c1		IC50 (Rhizopuspepsin): 2000 nM
